In patent publication US20240270699A1, “COMPOUNDS HAVING N-ARYLPYRIMIDIN-2-AMINE DERIVATIVES AS THERAPEUTIC AGENTS” (Lomond Therapeutics, Inc., priority 2021, published 2024):

Assays:
recombinant HPK1 protein = target: T1, recombinant HPK1 protein (Homo sapiens, UniProt Q92918); assay: Primary assay of HPK1 enzymatic activity inhibition (ADP-Glo luminescence); type: biochemical; settings: recombinant HPK1, MBP substrate, 1 hour at room temperature
T1 construct: purchased Promega V6398
T1 sequence (Q92918 1-346 limits assumed): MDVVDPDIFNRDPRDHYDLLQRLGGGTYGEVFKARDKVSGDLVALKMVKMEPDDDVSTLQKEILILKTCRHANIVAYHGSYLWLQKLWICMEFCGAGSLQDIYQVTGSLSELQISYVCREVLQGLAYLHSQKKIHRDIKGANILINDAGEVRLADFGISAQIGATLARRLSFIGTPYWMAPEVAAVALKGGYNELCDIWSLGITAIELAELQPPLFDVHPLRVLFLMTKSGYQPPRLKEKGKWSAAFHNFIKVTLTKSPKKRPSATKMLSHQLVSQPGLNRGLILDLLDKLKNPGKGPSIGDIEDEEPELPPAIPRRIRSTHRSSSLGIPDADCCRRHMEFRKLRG

Jurkat cells = assay: IL-2 release Jurkat assay (anti-CD3/anti-CD28 stimulation, IL-2 ELISA); type: cell-based, human; settings: activation with 400 ng/mL aCD3 + 400 ng/mL aCD28, 24 hours
[1] = Table C: Jurkat, 6 μM of tested compounds, stimulated vehicle = A
[2] = Table B: Jurkat, 1.5 μM of tested compounds
[3] = Table D: Jurkat, 6 μM of tested compounds, stimulated vehicle = B
[4] = Table E: Jurkat, 1.5 μM of tested compounds

| IC50 (recombinant HPK1 protein) | SMILES | IL-2, pg/mL stimulated (Jurkat cells; [1]) | IL-2, pg/mL stimulated (Jurkat cells; [2]) | IL-2, pg/mL stimulated (Jurkat cells; [3]) | IL-2, pg/mL stimulated (Jurkat cells; [4]) |
| --- | --- | --- | --- | --- | --- |
| 50 to 200 nM | CCOC(=O)c1cnc(Nc2ccc(S(C)(=O)=O)cc2F)nc1N[C@H](CO)c1ccccc1 [Compound 211, Ethyl 2-{[2-fluoro-4-(methylsulfonyl)phenyl]amino}-4-{[(1S)-2-hydroxy-1-phenylethyl]amino}pyrimidine-5-carboxylate] | B (50 pg/mL≤IL-2<100 pg/mL) | – | – | – |
| 50 to 200 nM | CC(C)NC(=O)c1cnc(Nc2ccc3c(c2)CCN(C)C3=O)nc1N[C@H](CO)c1ccccc1 [Compound 212, 4-{[(1S)-2-hydroxy-1-phenylethyl]amino}-2-[(2-methyl-1-oxo-1,2,3,4-tetrahydroisoquinolin-6-yl)amino]-N-(propan-2-yl)pyrimidine-5-carboxamide] | – | C (25.0 pg/mL≤IL-2<35.0 pg/mL) | – | – |
| 50 to 200 nM | CCOC(=O)c1cnc(Nc2ccc3c(c2)CCN(CC)C3=O)nc1N[C@H](CO)c1ccccc1 [Compound 218, Ethyl 2-[(2-ethyl-1-oxo-3,4-dihydroisoquinolin-6-yl)amino]-4-[[(1S)-2-hydroxy-1-phenyl-ethyl]amino]pyrimidine-5-carboxylate] | D (150 pg/mL≤IL-2) | – | – | – |
| 200 to 500 nM | CCOC(=O)c1cnc(Nc2ccc(C(=O)N(C)C)c(Cl)c2)nc1N[C@H](CO)c1ccccc1 [Compound 266, Ethyl 2-[3-chloro-4-(dimethylcarbamoyl)anilino]-4-[[(1S)-2-hydroxy-1-phenyl-ethyl]amino]pyrimidine-5-carboxylate] | C (100 pg/mL≤IL-2<150 pg/mL) | – | – | – |
| 200 to 500 nM | CCOC(=O)c1cnc(Nc2ccc(S(=O)(=O)C(C)C)cc2)nc1N[C@H](CO)c1ccccc1 [Compound 274, Ethyl 4-{[(1S)-2-hydroxy-1-phenylethyl]amino}-2-{[4-(propan-2-ylsulfonyl)phenyl]amino}pyrimidine-5-carboxylate] | B (50 pg/mL≤IL-2<100 pg/mL) | – | – | – |
| 200 to 500 nM | CC(C)NC(=O)c1cnc(Nc2ccc(F)c(-c3ccccc3)c2)nc1N[C@H](CO)c1ccccc1 [Compound 293, 2-[(6-fluorobiphenyl-3-yl)amino]-4-{[(1S)-2-hydroxy-1-phenylethyl]-amino}-N-(propan-2-yl)pyrimidine-5-carboxamide] | – | D (35.0 pg/mL≤IL-2) | – | – |
| < 50 nM | CS(=O)(=O)c1ccc(Nc2ncc(C(=O)OCCO)c(N[C@H](CO)c3ccccc3)n2)cc1F [Compound 319] | D (150 pg/mL≤IL-2) | – | – | – |
| 50 to 200 nM | CN1CCc2cc(Nc3ncc(C(=O)NC4CCCC4)c(N[C@H](CO)c4ccccc4)n3)ccc2C1=O [Compound 389, N-cyclopentyl-4-{[(1S)-2-hydroxy-1-phenylethyl]amino}-2-[(2-methyl-1-oxo-1,2,3,4-tetrahydroisoquinolin-6-yl)amino]pyrimidine-5-carboxamide] | – | C (25.0 pg/mL≤IL-2<35.0 pg/mL) | – | – |
| 50 to 200 nM | COCCNC(=O)c1cnc(Nc2ccc(S(C)(=O)=O)c(F)c2)nc1N[C@H](CO)c1ccccc1 [Compound 401, 2-(3-fluoro-4-methylsulfonyl-anilino)-4-[[(1S)-2-hydroxy-1-phenyl-ethyl]amino]-N-(2-methoxyethyl)-pyrimidine-5-carboxamide] | A (IL-2<50 pg/mL) | – | – | – |
| 200 to 500 nM | O=C(NCC(F)(F)F)c1cnc(Nc2ccc(F)c(-c3ccccc3)c2)nc1N[C@H](CO)c1ccccc1 [Compound 499, 2-[(6-fluorobiphenyl-3-yl)amino]-4-{[(1S)-2-hydroxy-1-phenylethyl]-amino}-N-(2,2,2-trifluoroethyl)pyrimidine-5-carboxamide] | – | C (25.0 pg/mL≤IL-2<35.0 pg/mL) | – | – |
| < 50 nM | CCOC(=O)c1cnc(Nc2ccc(C(N)=O)c(Cl)c2)nc1N[C@H](CO)c1ccccc1 [Compound 559, Ethyl 2-(4-carbamoyl-3-chloro-anilino)-4-[[(1S)-2-hydroxy-1-phenyl-ethyl]amino]pyrimidine-5-carboxylate] | – | – | D (150 pg/mL≤IL-2) | – |
| < 50 nM | CS(=O)(=O)c1cnc(Nc2ccc3c(c2)CCNC3=O)nc1N[C@H](CO)c1ccccc1 [Compound 564, 6-[[4-[[(1S)-2-hydroxy-1-phenyl-ethyl]amino]-5-methylsulfonyl-pyrimidin-2-yl]amino]-3,4-dihydro-2H-isoquinolin-1-one] | – | B (5.0 pg/mL≤IL-2<25.0 pg/mL) | – | – |
| < 50 nM | CCOC(=O)c1cnc(Nc2ccc3c(c2)CCCNC3=O)nc1N[C@H](CO)c1ccccc1 [Compound 566, ethyl 4-[[(1S)-2-hydroxy-1-phenyl-ethyl]amino]-2-[(1-oxo-2,3,4,5-tetrahydro-2-benzazepin-7-yl)amino]pyrimidine-5-carboxylate] | – | – | – | D (150 pg/mL≤IL-2) |

Continued, molecule first:

| SMILES | IC50 (recombinant HPK1 protein) | IL-2, pg/mL stimulated (Jurkat cells; [1]) | IL-2, pg/mL stimulated (Jurkat cells; [2]) | IL-2, pg/mL stimulated (Jurkat cells; [3]) | IL-2, pg/mL stimulated (Jurkat cells; [4]) |
| --- | --- | --- | --- | --- | --- |
| Cc1cc(Nc2ncc(C(=O)NC(C)C)c(N[C@H](CO)c3ccccc3)n2)ccc1S(C)(=O)=O [Compound 267, 4-{[(1S)-2-hydroxy-1-phenylethyl]amino}-2-{[3-methyl-4-(methylsulfonyl)phenyl]amino}-N-(propan-2-yl)pyrimidine-5-carboxamide] | 50 to 200 nM | – | D (35.0 pg/mL≤IL-2) | – | – |
| CCOC(=O)c1cnc(Nc2ccc(S(C)(=O)=O)c(OC)c2)nc1N[C@H](CO)c1ccccc1 [Compound 300, Ethyl 4-{[(1S)-2-hydroxy-1-phenylethyl]amino}-2-{[3-methoxy-4-(methylsulfonyl)phenyl]amino}pyrimidine-5-carboxylate] | 50 to 200 nM | A (IL-2<50 pg/mL) | – | – | – |
| CC(C)NC(=O)c1cnc(Nc2ccc(S(C)(=O)=O)c(F)c2)nc1N[C@H](CO)c1ccccc1 [Compound 301, 2-{[3-fluoro-4-(methylsulfonyl)phenyl]amino}-4-{[(1S)-2-hydroxy-1-phenylethyl]amino}-N-(propan-2-yl)pyrimidine-5-carboxamide] | 200 to 500 nM | – | A (IL-2<5.0 pg/mL) | – | – |
| COCCNC(=O)c1cnc(Nc2ccc(S(C)(=O)=O)c(C)c2)nc1N[C@H](CO)c1ccccc1 [Compound 372, 4-[[(1S)-2-hydroxy-1-phenyl-ethyl]amino]-N-(2-methoxyethyl)-2-(3-methyl-4-methylsulfonyl-anilino)pyrimidine-5-carboxamide] | 200 to 500 nM | C (100 pg/mL≤IL-2<150 pg/mL) | – | – | – |
| Cc1cc(Nc2ncc(C(=O)NC3CCCC3)c(N[C@H](CO)c3ccccc3)n2)ccc1S(C)(=O)=O [Compound 434, N-cyclopentyl-4-{[(1S)-2-hydroxy-1-phenylethyl]amino}-2-{[3-methyl-4-(methylsulfonyl)phenyl]amino}pyrimidine-5-carboxamide] | 200 to 500 nM | – | B (5.0 pg/mL≤IL-2<25.0 pg/mL) | – | – |
| Cc1cc(Nc2ncc(C(=O)NCC(F)(F)F)c(N[C@H](CO)c3ccccc3)n2)ccc1S(C)(=O)=O [Compound 490, 4-{[(1S)-2-hydroxy-1-phenylethyl]amino}-2-{[3-methyl-4-(methylsulfonyl)phenyl]amino}-N-(2,2,2-trifluoroethyl)pyrimidine-5-carboxamide] | < 50 nM | – | B (5.0 pg/mL≤IL-2<25.0 pg/mL) | – | – |
| CCOC(=O)c1cnc(Nc2ccc(C(=O)NC)c(Cl)c2)nc1N[C@H](CO)c1ccccc1 [Compound 560, Ethyl 2-[3-chloro-4-(methylcarbamoyl)anilino]-4-[[(1S)-2-hydroxy-1-phenyl-ethyl]amino]pyrimidine-5-carboxylate] | 50 to 200 nM | – | – | D (150 pg/mL≤IL-2) | – |
| CCOC(=O)CCCCCc1nnc(-c2cnc(Nc3ccc(S(C)(=O)=O)c(C)c3)nc2N[C@H](CO)c2ccccc2)o1 [Compound 561, Ethyl 6-[5-[4-[[(1S)-2-hydroxy-1-phenyl-ethyl]amino]-2-(3-methyl-4-methylsulfonyl-anilino)pyrimidin-5-yl]-1,3,4-oxadiazol-2-yl]hexanoate] | 50 to 200 nM | – | – | B (50 pg/mL≤IL-2<100 pg/mL) | – |
| CCOC(=O)c1cnc(Nc2ccc3c(c2)CCNC3=O)nc1N[C@@H](CO)c1ccccc1 [Compound 568, ethyl 4-[[(1R)-2-hydroxy-1-phenyl-ethyl]amino]-2-[(1-oxo-3,4-dihydro-2H-isoquinolin-6-yl)amino]pyrimidine-5-carobxylate] | 50 to 200 nM | – | A (IL-2<5.0 pg/mL) | – | – |
| CCOC(=O)c1cnc(Nc2ccc3c(c2)CCNC3=O)nc1N[C@H](CO)c1ccc(OC)cc1 [Compound 569, ethyl 4-[[(1S)-2-hydroxy-1-(4-methoxyphenyl)ethyl]amino]-2-[(1-oxo-3,4-dihydro-2H-isoquinolin-6-yl)amino]pyrimidine-5-carboxylate] | < 50 nM | – | C (25.0 pg/mL≤IL-2<35.0 pg/mL) | – | – |
| CCOC(=O)c1cnc(Nc2ccc3c(c2)CCNC3=O)nc1N[C@H](CO)c1cccc(OC)c1 [Compound 570, ethyl 4-[[(1S)-2-hydroxy-1-(3-methoxyphenyl)ethyl]amino]-2-[(1-oxo-3,4-dihydro-2H-isoquinolin-6-yl)amino]pyrimidine-5-carboxylate] | < 50 nM | – | B (5.0 pg/mL≤IL-2<25.0 pg/mL) | – | – |
| CCOC(=O)c1cnc(Nc2ccc3c(c2)CCCS3(=O)=O)nc1N[C@H](CO)c1ccccc1 [Compound 573, ethyl 2-[(1,1-dioxo-3,4-dihydro-2H-thiochromen-6-yl)amino]-4-[[(1S)-2-hydroxy-1-phenyl-ethyl]amino]pyrimidine-5-carboxylate] | < 50 nM | – | – | – | C (100 pg/mL≤IL-2<150 pg/mL) |
